pKd: −log10 of the molar value.
Biological target: Phosphatidylinositol 4-phosphate 5-kinase type-1 alpha (Homo sapiens, UniProt Q99755)
Sequence (Q99755 whole entry): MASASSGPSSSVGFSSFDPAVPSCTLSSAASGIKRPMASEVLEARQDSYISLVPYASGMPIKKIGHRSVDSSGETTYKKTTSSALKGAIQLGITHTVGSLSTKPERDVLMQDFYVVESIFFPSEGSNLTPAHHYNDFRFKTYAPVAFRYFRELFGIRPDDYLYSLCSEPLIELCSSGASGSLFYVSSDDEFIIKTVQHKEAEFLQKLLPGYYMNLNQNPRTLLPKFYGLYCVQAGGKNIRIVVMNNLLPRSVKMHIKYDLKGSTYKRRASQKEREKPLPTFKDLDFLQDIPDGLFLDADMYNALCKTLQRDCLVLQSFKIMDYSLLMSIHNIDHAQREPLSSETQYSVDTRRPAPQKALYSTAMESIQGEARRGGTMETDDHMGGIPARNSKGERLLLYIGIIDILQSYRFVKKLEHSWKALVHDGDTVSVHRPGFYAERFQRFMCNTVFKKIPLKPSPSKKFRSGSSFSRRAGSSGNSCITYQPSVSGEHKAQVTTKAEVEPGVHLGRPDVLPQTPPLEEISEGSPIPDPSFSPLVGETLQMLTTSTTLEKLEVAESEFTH

SMILES	pKd
CCOc1cc2ncc(C#N)c(Nc3ccc(F)c(Cl)c3)c2cc1NC(=O)/C=C/CN(C)C [PELITINIB]	< 5.00
Nc1nc(Nc2ccc(S(N)(=O)=O)cc2)nn1C(=O)c1c(F)cccc1F [JNJ-7706621]	5.04
Oc1ccc(-c2nc(-c3ccncc3)c(-c3ccc(F)cc3)[nH]2)cc1 [SB-202190]	< 5.00
COCC(=O)NC/C=C/c1ccc2ncnc(Nc3ccc(Oc4ccc(C)nc4)c(C)c3)c2c1 [CP-724714]	< 5.00
NC(=O)c1ccc(-c2nc(-c3ccc4c(c3)OCO4)c(-c3ccccn3)[nH]2)cc1 [SB-431542]	< 5.00

Biological target: Ribosomal protein S6 kinase alpha-5 (Homo sapiens, UniProt O75582)
Sequence (O75582 whole entry): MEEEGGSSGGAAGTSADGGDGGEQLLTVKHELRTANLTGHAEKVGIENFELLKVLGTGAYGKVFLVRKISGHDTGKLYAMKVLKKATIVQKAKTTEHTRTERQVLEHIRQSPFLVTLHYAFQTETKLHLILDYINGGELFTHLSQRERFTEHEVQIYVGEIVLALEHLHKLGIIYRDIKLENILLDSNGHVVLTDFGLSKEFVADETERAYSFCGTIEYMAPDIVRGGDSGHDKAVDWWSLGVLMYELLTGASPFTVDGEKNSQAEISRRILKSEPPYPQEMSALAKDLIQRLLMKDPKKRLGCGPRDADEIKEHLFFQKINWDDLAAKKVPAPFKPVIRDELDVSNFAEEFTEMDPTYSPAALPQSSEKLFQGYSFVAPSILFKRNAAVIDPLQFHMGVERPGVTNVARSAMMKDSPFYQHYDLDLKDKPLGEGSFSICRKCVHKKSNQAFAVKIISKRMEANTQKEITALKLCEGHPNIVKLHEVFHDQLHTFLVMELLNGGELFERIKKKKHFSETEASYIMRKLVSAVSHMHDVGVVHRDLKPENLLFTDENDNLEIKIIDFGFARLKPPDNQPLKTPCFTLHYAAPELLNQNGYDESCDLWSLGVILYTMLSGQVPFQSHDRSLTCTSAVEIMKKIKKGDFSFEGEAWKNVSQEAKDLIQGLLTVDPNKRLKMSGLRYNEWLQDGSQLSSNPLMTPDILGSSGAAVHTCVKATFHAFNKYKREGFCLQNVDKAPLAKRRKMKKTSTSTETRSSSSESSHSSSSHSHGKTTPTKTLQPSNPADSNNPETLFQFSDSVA

SMILES	pKd
CCOc1cc2ncc(C#N)c(Nc3ccc(F)c(Cl)c3)c2cc1NC(=O)/C=C/CN(C)C [PELITINIB]	< 5.00
Nc1nc(Nc2ccc(S(N)(=O)=O)cc2)nn1C(=O)c1c(F)cccc1F [JNJ-7706621]	< 5.00
Oc1ccc(-c2nc(-c3ccncc3)c(-c3ccc(F)cc3)[nH]2)cc1 [SB-202190]	< 5.00
COCC(=O)NC/C=C/c1ccc2ncnc(Nc3ccc(Oc4ccc(C)nc4)c(C)c3)c2c1 [CP-724714]	< 5.00
NC(=O)c1ccc(-c2nc(-c3ccc4c(c3)OCO4)c(-c3ccccn3)[nH]2)cc1 [SB-431542]	< 5.00

Biological target: T1, Atypical kinase COQ8B, mitochondrial (Homo sapiens, UniProt Q96D53)
T1 sequence (Q96D53 whole entry): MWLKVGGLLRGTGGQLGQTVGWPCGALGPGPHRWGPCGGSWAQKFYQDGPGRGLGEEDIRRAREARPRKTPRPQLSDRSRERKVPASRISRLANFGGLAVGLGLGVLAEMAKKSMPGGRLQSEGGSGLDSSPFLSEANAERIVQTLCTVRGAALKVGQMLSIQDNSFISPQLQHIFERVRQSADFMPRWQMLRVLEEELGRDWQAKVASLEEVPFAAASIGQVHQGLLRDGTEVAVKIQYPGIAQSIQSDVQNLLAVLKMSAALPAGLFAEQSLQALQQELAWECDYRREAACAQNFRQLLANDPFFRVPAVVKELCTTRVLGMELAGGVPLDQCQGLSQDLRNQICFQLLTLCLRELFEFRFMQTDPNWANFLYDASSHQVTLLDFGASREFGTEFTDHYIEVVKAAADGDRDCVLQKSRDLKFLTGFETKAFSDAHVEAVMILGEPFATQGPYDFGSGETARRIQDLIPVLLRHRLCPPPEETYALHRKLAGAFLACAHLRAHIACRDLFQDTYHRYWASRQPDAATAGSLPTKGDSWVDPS

SMILES	pKd
CCOc1cc2ncc(C#N)c(Nc3ccc(F)c(Cl)c3)c2cc1NC(=O)/C=C/CN(C)C [PELITINIB]	5.21
Nc1nc(Nc2ccc(S(N)(=O)=O)cc2)nn1C(=O)c1c(F)cccc1F [JNJ-7706621]	< 5.00
Oc1ccc(-c2nc(-c3ccncc3)c(-c3ccc(F)cc3)[nH]2)cc1 [SB-202190]	5.31
COCC(=O)NC/C=C/c1ccc2ncnc(Nc3ccc(Oc4ccc(C)nc4)c(C)c3)c2c1 [CP-724714]	< 5.00
NC(=O)c1ccc(-c2nc(-c3ccc4c(c3)OCO4)c(-c3ccccn3)[nH]2)cc1 [SB-431542]	< 5.00

Biological target: T2, Cyclin-G-associated kinase (Homo sapiens, UniProt O14976)
T2 sequence (O14976 whole entry): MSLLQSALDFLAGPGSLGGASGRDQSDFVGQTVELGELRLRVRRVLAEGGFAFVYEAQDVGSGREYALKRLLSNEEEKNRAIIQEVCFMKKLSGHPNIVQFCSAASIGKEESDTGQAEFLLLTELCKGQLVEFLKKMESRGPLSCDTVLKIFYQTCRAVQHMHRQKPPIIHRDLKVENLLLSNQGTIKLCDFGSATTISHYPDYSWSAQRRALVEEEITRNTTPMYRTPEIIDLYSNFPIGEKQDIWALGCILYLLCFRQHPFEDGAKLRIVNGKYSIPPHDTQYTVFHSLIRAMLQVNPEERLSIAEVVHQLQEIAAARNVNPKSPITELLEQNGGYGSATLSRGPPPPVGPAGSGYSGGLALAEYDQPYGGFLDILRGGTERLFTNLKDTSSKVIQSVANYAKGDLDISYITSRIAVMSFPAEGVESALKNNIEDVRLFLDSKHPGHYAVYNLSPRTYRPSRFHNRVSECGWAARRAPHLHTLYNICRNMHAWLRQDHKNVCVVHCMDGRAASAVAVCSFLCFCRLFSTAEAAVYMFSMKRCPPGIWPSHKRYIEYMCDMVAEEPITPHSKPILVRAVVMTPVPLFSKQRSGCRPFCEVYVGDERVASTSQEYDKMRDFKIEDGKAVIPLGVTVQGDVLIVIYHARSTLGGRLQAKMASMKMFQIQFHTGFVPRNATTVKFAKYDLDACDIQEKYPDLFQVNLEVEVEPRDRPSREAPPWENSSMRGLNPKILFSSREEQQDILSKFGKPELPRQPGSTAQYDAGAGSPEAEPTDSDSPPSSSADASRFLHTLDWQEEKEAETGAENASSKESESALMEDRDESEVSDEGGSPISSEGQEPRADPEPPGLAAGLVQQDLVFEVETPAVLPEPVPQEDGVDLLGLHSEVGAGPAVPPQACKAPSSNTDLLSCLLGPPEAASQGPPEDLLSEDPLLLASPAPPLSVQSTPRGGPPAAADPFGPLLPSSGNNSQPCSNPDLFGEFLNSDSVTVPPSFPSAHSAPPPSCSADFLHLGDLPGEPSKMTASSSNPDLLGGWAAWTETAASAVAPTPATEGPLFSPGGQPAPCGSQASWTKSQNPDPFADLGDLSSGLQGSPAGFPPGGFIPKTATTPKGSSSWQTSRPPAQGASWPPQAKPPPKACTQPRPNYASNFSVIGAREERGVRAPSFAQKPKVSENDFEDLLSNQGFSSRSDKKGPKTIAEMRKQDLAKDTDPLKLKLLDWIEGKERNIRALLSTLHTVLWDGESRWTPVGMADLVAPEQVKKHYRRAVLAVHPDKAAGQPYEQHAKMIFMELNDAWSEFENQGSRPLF

SMILES	pKd
CCOc1cc2ncc(C#N)c(Nc3ccc(F)c(Cl)c3)c2cc1NC(=O)/C=C/CN(C)C [PELITINIB]	8.19
COCC(=O)NC/C=C/c1ccc2ncnc(Nc3ccc(Oc4ccc(C)nc4)c(C)c3)c2c1 [CP-724714]	< 5.00
NC(=O)c1ccc(-c2nc(-c3ccc4c(c3)OCO4)c(-c3ccccn3)[nH]2)cc1 [SB-431542]	< 5.00

Biological target: Vascular endothelial growth factor receptor 1 (Homo sapiens, UniProt P17948)
Sequence (P17948 whole entry): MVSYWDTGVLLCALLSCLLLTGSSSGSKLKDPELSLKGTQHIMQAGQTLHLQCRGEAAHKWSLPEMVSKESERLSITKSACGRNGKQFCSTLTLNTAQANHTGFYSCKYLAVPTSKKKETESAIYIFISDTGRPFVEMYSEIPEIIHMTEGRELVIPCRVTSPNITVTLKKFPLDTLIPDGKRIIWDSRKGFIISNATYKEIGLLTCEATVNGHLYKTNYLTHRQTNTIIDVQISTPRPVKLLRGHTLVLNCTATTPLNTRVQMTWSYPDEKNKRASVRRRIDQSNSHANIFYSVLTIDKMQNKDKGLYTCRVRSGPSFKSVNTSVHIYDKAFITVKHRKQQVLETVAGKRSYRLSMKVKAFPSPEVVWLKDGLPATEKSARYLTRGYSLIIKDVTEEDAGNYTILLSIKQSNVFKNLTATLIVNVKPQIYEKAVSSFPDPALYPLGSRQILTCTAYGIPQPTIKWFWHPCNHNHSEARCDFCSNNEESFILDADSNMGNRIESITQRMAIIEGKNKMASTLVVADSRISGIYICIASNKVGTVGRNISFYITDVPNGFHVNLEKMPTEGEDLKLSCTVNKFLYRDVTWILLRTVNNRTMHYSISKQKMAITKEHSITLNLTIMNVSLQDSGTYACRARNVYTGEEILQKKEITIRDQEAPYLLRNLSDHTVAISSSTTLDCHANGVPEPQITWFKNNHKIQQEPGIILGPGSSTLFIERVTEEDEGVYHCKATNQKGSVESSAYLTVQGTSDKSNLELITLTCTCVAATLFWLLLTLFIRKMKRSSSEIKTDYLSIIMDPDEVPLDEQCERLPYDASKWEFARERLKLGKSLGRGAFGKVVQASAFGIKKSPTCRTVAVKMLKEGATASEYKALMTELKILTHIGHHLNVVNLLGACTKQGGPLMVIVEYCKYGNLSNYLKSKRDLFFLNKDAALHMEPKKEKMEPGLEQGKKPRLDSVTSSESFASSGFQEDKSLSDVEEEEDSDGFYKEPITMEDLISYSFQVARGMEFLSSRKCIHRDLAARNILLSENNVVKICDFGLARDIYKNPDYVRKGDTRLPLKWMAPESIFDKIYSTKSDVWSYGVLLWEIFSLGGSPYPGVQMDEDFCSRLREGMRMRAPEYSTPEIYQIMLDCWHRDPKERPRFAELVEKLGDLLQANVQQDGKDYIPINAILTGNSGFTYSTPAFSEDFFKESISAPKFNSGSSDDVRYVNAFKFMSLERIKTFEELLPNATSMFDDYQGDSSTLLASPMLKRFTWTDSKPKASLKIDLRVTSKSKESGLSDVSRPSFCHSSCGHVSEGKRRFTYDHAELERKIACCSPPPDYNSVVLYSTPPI

SMILES	pKd
CCOc1cc2ncc(C#N)c(Nc3ccc(F)c(Cl)c3)c2cc1NC(=O)/C=C/CN(C)C [PELITINIB]	< 5.00
Oc1ccc(-c2nc(-c3ccncc3)c(-c3ccc(F)cc3)[nH]2)cc1 [SB-202190]	< 5.00
COCC(=O)NC/C=C/c1ccc2ncnc(Nc3ccc(Oc4ccc(C)nc4)c(C)c3)c2c1 [CP-724714]	< 5.00
NC(=O)c1ccc(-c2nc(-c3ccc4c(c3)OCO4)c(-c3ccccn3)[nH]2)cc1 [SB-431542]	< 5.00

Biological target: T3, Myosin light chain kinase family member 4 (Homo sapiens, UniProt Q86YV6)
T3 sequence (Q86YV6 whole entry): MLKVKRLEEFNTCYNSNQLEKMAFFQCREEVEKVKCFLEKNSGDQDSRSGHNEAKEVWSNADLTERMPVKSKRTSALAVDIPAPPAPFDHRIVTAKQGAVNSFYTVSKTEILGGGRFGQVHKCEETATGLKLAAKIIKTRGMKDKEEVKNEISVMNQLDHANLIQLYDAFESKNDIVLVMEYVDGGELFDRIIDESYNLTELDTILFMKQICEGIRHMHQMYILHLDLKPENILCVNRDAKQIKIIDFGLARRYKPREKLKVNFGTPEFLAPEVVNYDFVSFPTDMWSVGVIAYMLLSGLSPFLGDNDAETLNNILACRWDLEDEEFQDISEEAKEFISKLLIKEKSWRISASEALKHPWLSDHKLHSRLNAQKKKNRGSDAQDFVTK

SMILES	pKd
CCOc1cc2ncc(C#N)c(Nc3ccc(F)c(Cl)c3)c2cc1NC(=O)/C=C/CN(C)C [PELITINIB]	< 5.00
Nc1nc(Nc2ccc(S(N)(=O)=O)cc2)nn1C(=O)c1c(F)cccc1F [JNJ-7706621]	< 5.00
Oc1ccc(-c2nc(-c3ccncc3)c(-c3ccc(F)cc3)[nH]2)cc1 [SB-202190]	< 5.00
COCC(=O)NC/C=C/c1ccc2ncnc(Nc3ccc(Oc4ccc(C)nc4)c(C)c3)c2c1 [CP-724714]	< 5.00
NC(=O)c1ccc(-c2nc(-c3ccc4c(c3)OCO4)c(-c3ccccn3)[nH]2)cc1 [SB-431542]	< 5.00

Biological target: T4, Aurora kinase C (Homo sapiens, UniProt Q9UQB9)
T4 sequence (Q9UQB9 whole entry): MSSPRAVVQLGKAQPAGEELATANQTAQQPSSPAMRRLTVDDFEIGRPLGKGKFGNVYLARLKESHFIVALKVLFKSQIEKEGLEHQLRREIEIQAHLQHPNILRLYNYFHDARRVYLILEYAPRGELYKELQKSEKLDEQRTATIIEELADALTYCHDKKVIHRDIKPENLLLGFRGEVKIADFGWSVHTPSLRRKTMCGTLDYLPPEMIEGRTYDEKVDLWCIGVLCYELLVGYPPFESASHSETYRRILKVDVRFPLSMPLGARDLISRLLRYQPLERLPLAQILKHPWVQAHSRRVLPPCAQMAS

SMILES	pKd
CCOc1cc2ncc(C#N)c(Nc3ccc(F)c(Cl)c3)c2cc1NC(=O)/C=C/CN(C)C [PELITINIB]	< 5.00
Nc1nc(Nc2ccc(S(N)(=O)=O)cc2)nn1C(=O)c1c(F)cccc1F [JNJ-7706621]	7.07
Oc1ccc(-c2nc(-c3ccncc3)c(-c3ccc(F)cc3)[nH]2)cc1 [SB-202190]	< 5.00
COCC(=O)NC/C=C/c1ccc2ncnc(Nc3ccc(Oc4ccc(C)nc4)c(C)c3)c2c1 [CP-724714]	< 5.00
NC(=O)c1ccc(-c2nc(-c3ccc4c(c3)OCO4)c(-c3ccccn3)[nH]2)cc1 [SB-431542]	< 5.00

Biological target: Receptor-type tyrosine-protein kinase FLT3 (Homo sapiens, UniProt P36888, N841I)

SMILES	pKd
CCOc1cc2ncc(C#N)c(Nc3ccc(F)c(Cl)c3)c2cc1NC(=O)/C=C/CN(C)C [PELITINIB]	5.70
Oc1ccc(-c2nc(-c3ccncc3)c(-c3ccc(F)cc3)[nH]2)cc1 [SB-202190]	< 5.00
COCC(=O)NC/C=C/c1ccc2ncnc(Nc3ccc(Oc4ccc(C)nc4)c(C)c3)c2c1 [CP-724714]	< 5.00
